Molecular target: T1, MMP9 mediated gelatinase activity (Rattus norvegicus, UniProt P50282)
T1 construct: from tissue; host or cells: frozen liver sections of female Lewis rats
Assay: In situ zymography of gelatinase activity in livers of SCW-induced rats dosed with Compound-α
Type: in vivo
Details: for Intensity, Rat 1 / Intensity, Rat 2 / Intensity, Rat 3 / Intensity, Mean: SCW, liver; for Intensity, Mean: n=3
Source text: In situ zymography provides an alternative approach to assess active MMP9 in tissues (Frederiks). Tissue sections are overlain with fluorescene-conjugated gelatin wherein the conjugation is sufficiently dense to cause the fluorescene to be dye-quenched (DQ). Proteolytic degradation of the DQ-gelatin releases the fluorescene from the quenching effect giving rise to bright green fluorescence at the site of degradation. Because in situ zymography requires the use of frozen sections, calcified tissues are problematic. However, an additional feature of the SCW arthritis model is the development of hepatic granulomatous disease (J Immunol; 1986; 137:2199-2209), and MMP9 reportedly plays a role in macrophage recruitment in the granulomas response to mycobacteria (Infect Immun; 2006; 74:6135-6144). Consequently, granulomatous livers from SCW-treated rats were assessed for active MMP9 by in situ zymography.
As described above, Female Lewis (LEW/N) rats, 5-6 weeks of age (80-100 g) were injected (i.p.) with saline or SCW PG-PS. On day 28, when the granulomatous response was well established, animals were sacrificed and livers were frozen in OCT cryo-sectioning medium and 10 μm sections were cut on a Cryome HM 500 M cryotome and mounted on glass microscope slides. Sections were air dried briefly. MMP9 was confirmed as the source of the gelatinase activity in the liver by treating liver sections with monoclonal antibodies directed against the active site of the two major gelatinases MMP9 and MMP2. Liver sections overlain with 50 μL of 100 μg/mL neutralizing mouse monoclonal antibodies directed against MMP9 (Calbiochem, clone 6-6B), or MMP2 (Millipore, clone CA-4001), or with PBS for 1 hr at room temperature. Tissues were rinsed once with PBS, blotted, and briefly air dried and then overlain with DQ-gelatin (Invitrogen) dissolved to 1 mg/mL in deionized water and then diluted 1:10 in 1% wt/vol low gelling point agarose type VII (Sigma) in PBS. The sections were covered with coverslips, incubated in the dark at room temperature for 20 min, and imaged on an Olympus IX80 inverted microscope fitted with fluorescence optics, using SlideBook™ imaging software (Intelligent Imaging Innovations, Inc., Philadelphia, Pa.; version 5.0). Fluorescence intensity was determined (Table 8). When compared to a saline-treated rat, gelatinase activity was abundantly expressed in granulomatous liver sections obtained from a rat with SCW arthritis.
Next, liver in situ zymography was used to assess the relative presence of active MMP9 in rats dosed with vehicle vs. Compound-α. Female Lewis (LEW/N) rats, 5-6 weeks of age (80-100 g) were injected (i.p.) with saline or SCW PG-PS. Commencing on day 25, randomized groups of rats (n=3 rats/group) received vehicle or 20 or 50 mg/kg Compound-α BID by oral gavage. Vehicle consisted of an aqueous mixture containing 2% (v:v) N-methylpyrrolidone, 5% (v:v) glycerine, and 20% (w:v) captisol. Treatment continued daily through the morning of day 28. Four hrs after the AM dose on day 28, rats were sacrificed and livers assessed for active MMP9 by in situ zymography (Table 9). Gelatinase activity was increased markedly in SCW-induced rats, but activity was reduced by approximately 80% in animals treated with 50 mg/kg Compound-α.

[1] = 20 mg/kg BID oral gavage Day 25-28
[2] = 50 mg/kg BID oral gavage Day 25-28

T1 sequence (P50282 20-708): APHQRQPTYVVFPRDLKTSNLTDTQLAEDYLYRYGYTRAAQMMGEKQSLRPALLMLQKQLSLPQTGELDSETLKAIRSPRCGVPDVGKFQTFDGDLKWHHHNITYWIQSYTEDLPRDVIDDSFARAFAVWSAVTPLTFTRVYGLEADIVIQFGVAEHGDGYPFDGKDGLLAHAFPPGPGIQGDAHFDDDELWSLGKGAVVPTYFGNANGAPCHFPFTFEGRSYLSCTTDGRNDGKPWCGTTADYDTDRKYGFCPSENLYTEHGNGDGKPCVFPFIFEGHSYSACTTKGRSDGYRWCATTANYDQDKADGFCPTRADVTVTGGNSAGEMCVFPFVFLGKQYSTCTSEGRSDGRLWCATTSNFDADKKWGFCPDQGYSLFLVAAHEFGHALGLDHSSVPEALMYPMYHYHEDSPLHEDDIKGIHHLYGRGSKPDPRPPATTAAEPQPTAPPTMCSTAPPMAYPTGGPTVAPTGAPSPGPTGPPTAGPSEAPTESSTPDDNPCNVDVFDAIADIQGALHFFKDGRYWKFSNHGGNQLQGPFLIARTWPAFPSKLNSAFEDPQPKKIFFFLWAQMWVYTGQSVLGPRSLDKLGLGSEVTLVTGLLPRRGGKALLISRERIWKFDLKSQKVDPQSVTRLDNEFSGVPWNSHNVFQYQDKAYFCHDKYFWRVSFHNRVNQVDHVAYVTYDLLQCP

With Cc1nc(C)c(-c2csc(Nc3cc(S(N)(=O)=O)ccc3OC(C)C)n2)s1 [Compound α, 3-(2′,4′-Dimethyl-[4,5′]bithiazolyl-2-ylamino)-4-isopropoxy-benzenesulfonamide.HBr] the “reduction of gelatinase activity in liver” value (50 mg/kg, SCW-induced rats, day 28) was “approximately 80%”, the “Intensity, Rat 1” value [1] was 43.0 RLU × 10^6 and the “Intensity, Rat 2” value [1] was 69.0 RLU × 10^6. For the same molecule, the “Intensity, Rat 3” value [1] was 53.7 RLU × 10^6, the “Intensity, Mean” value [1] was 55.2 RLU × 10^6 and the “Intensity, Rat 1” value [2] was 3.2 RLU × 10^6. The “Intensity, Rat 2” value [2] was 25.6 RLU × 10^6, the “Intensity, Rat 3” value [2] was 4.5 RLU × 10^6 and the “Intensity, Mean” value [2] was 11.1 RLU × 10^6.

— patent US20120129811A1, “TRICYCLIC INHIBITORS OF PRO-MATRIX METALLOPROTEINASE ACTIVATION” (priority 2010, published 2012)
